Patent US12377104B1, “Methods for treating a fatty liver disease” (Madrigal Pharmaceuticals, Inc., priority 2024, dated 2025)

Test system: adults with biopsy-confirmed NASH
Assay: MAESTRO-NASH: adverse events, serious adverse events, malignancies
Conditions: for Adverse event: Abdominal distension / Adverse event: Abdominal pain / Adverse event: Abdominal pain upper / Adverse event: Constipation / Adverse event: Cough / Adverse event: Decreased appetite / Adverse event: Dizziness / Adverse event: Gastrooesophageal reflux disease / Adverse event: Headache / Adverse event: Hypertension / Adverse event: Muscle spasms / Adverse event: Nasopharyngitis / Adverse event: Pain in extremity / Adverse event: Procedural pain / Adverse event: Rash / Adverse event: Sinusitis / Adverse event: Type 2 diabetes / Adverse event: Upper respiratory tract infection / Adverse event: Vomiting: safety population
Description: Safety end points included adverse events, biochemical assessments, and clinical assessments. Selected serious adverse events (including deaths, cardiovascular events, and potential drug-induced liver injury) were adjudicated by independent, external event-adjudication committees whose members were unaware of the trial-group assignments.

Compound: CC(C)c1cc(Oc2c(Cl)cc(-n3nc(C#N)c(=O)[nH]c3=O)cc2Cl)n[nH]c1=O [Resmetirom, 2-(3,5-dichloro-4-((5-isopropyl-6-oxo-1,6-dihydropyridazin-3-yl)oxy)phenyl)-3,5-dioxo-2,3,4,5-tetrahydro-1,2,4-triazine-6-carbonitrile]
- Adverse event leading to trial discontinuation before wk 52, number of patients (80 mg): 6
- Adverse event leading to trial discontinuation during entire treatment period, number of patients (80 mg): 9
- Adverse event leading to trial discontinuation during entire treatment period, percent of patients (80 mg): (2.8) percent
- Arthralgia, number of patients (80 mg): 48
- Arthralgia, percent of patients (80 mg): (14.9) percent
- Back pain, number of patients (80 mg): 35
- Back pain, percent of patients (80 mg): (10.9) percent
- Cancer reported, patients (80 mg): 1.2%
- Covid-19, number of patients (80 mg): 69
- Covid-19, percent of patients (80 mg): (21.4) percent
- Diarrhea, number of patients (80 mg): 87
- Diarrhea, percent of patients (80 mg): (27.0) percent
- Fatal adverse event, number of patients (80 mg): 1
- Fatal adverse event, percent of patients (80 mg): (0.3) percent
- Fatigue, number of patients (80 mg): 33
- Fatigue, percent of patients (80 mg): (10.2) percent
- Grade 1: mild, number of patients (80 mg): 73
- Grade 1: mild, percent of patients (80 mg): (22.7) percent
- Grade 2: moderate, number of patients (80 mg): 180
- Grade 2: moderate, percent of patients (80 mg): (55.9) percent
- Grade 3 or higher: severe, number of patients (80 mg): 43
- Grade 3 or higher: severe, percent of patients (80 mg): (13.4) percent
- Major adverse cardiovascular event, number of patients (80 mg): 1
- Major adverse cardiovascular event, percent of patients (80 mg): (0.3) percent
- Nausea, number of patients (80 mg): 71
- Nausea, percent of patients (80 mg): (22.0) percent
- Other cardiovascular event, number of patients (80 mg): 0
- Pruritus, number of patients (80 mg): 26
- Pruritus, percent of patients (80 mg): (8.1) percent
- Urinary tract infection, number of patients (80 mg): 33
- Urinary tract infection, percent of patients (80 mg): (10.2) percent
- ≥1 Adverse event attributed to resmetirom, number of patients (80 mg): 124
- ≥1 Adverse event attributed to resmetirom, percent of patients (80 mg): (38.5) percent
- ≥1 Adverse event, number of patients (80 mg): 296
- ≥1 Adverse event, percent of patients (80 mg): (91.9) percent
- ≥1 Serious adverse event attributed to resmetirom, number of patients (80 mg): 2
- ≥1 Serious adverse event attributed to resmetirom, percent of patients (80 mg): (0.6) percent
- ≥1 Serious adverse event, number of patients (80 mg): 35
- Malignancy: Basal cell carcinoma (80 mg (N = 322)): 2 (0.6) n (%)
- Malignancy: Breast carcinoma (80 mg (N = 322)): 1 (0.3) n (%)
- Malignancy: Malignant melanoma (80 mg (N = 322)): 0 n (%)
- Malignancy: Skin cancer (squamous cell) (80 mg (N = 322)): 1 (0.3) n (%)
- Patients with any malignancy (80 mg (N = 322)): 4 (1.2) n (%)
- Patients with at least one TE-SAEs (80 mg (N = 322)): 35 (10.9) n (%)
- SAE: Acute Gallstone-related disorders (80 mg (N = 322)): 3 (0.9) n (%)
- SAE: COVID-19 (80 mg (N = 322)): 1 (0.3) n (%)
- SAE: COVID-19 pneumonia (80 mg (N = 322)): 2 (0.6) n (%)
- SAE: Cardiac disorders (80 mg (N = 322)): 3 (0.9) n (%)
- SAE: Gastrointestinal disorders (80 mg (N = 322)): 3 (0.9) n (%)
- SAE: General disorders and administration site conditions (80 mg (N = 322)): 2 (0.6) n (%)
- SAE: Infections and infestations (80 mg (N = 322)): 12 (3.7) n (%)
- SAE: Injury, poisoning and procedural complications (80 mg (N = 322)): 3 (0.9) n (%)
- SAE: Musculoskeletal and connective tissue disorders (80 mg (N = 322)): 7 (2.2) n (%)
- SAE: Nervous system disorders (80 mg (N = 322)): 3 (0.9) n (%)
- SAE: Post procedural haemorrhage (80 mg (N = 322)): 1 (0.3) n (%)
- SAE: Respiratory, thoracic and mediastinal disorders (80 mg (N = 322)): 3 (0.9) n (%)
- Adverse event: Abdominal distension (80 mg (n = 322)): 14 (4.3) no. (%)
- Adverse event: Abdominal pain (80 mg (n = 322)): 23 (7.1) no. (%)
- Adverse event: Abdominal pain upper (80 mg (n = 322)): 23 (7.1) no. (%)
- Adverse event: Constipation (80 mg (n = 322)): 21 (6.5) no. (%)
- Adverse event: Cough (80 mg (n = 322)): 14 (4.3) no. (%)
- Adverse event: Decreased appetite (80 mg (n = 322)): 5 (1.6) no. (%)
- Adverse event: Dizziness (80 mg (n = 322)): 20 (6.2) no. (%)
- Adverse event: Gastrooesophageal reflux disease (80 mg (n = 322)): 16 (5.0) no. (%)
- Adverse event: Headache (80 mg (n = 322)): 30 (9.3) no. (%)
- Adverse event: Hypertension (80 mg (n = 322)): 16 (5.0) no. (%)
- Adverse event: Muscle spasms (80 mg (n = 322)): 14 (4.3) no. (%)
- Adverse event: Nasopharyngitis (80 mg (n = 322)): 14 (4.3) no. (%)
- Adverse event: Pain in extremity (80 mg (n = 322)): 12 (3.7) no. (%)
- Adverse event: Procedural pain (80 mg (n = 322)): 16 (5.0) no. (%)
- Adverse event: Rash (80 mg (n = 322)): 12 (3.7) no. (%)
- Adverse event: Sinusitis (80 mg (n = 322)): 10 (3.1) no. (%)
- Adverse event: Type 2 diabetes (80 mg (n = 322)): 24 (7.5) no. (%)
- Adverse event: Upper respiratory tract infection (80 mg (n = 322)): 23 (7.1) no. (%)
- Adverse event: Vomiting (80 mg (n = 322)): 28 (8.7) no. (%)
- Adverse event leading to trial discontinuation before wk 52, number of patients (100 mg): 22
- Adverse event leading to trial discontinuation during entire treatment period, number of patients (100 mg): 25
- Adverse event leading to trial discontinuation during entire treatment period, percent of patients (100 mg): (7.7) percent
- Arthralgia, number of patients (100 mg): 35
- Arthralgia, percent of patients (100 mg): (10.8) percent
- Back pain, number of patients (100 mg): 27
- Back pain, percent of patients (100 mg): (8.4) percent
- Cancer reported, patients (100 mg): 3.4%
- Covid-19, number of patients (100 mg): 54
- Covid-19, percent of patients (100 mg): (16.7) percent
- Diarrhea, number of patients (100 mg): 108
- Diarrhea, percent of patients (100 mg): (33.4) percent
- Fatal adverse event, number of patients (100 mg): 2
- Fatal adverse event, percent of patients (100 mg): (0.6) percent
- Fatigue, number of patients (100 mg): 26
- Fatigue, percent of patients (100 mg): (8.0) percent
- Grade 1: mild, number of patients (100 mg): 66
- Grade 1: mild, percent of patients (100 mg): (20.4) percent
- Grade 2: moderate, number of patients (100 mg): 183
- Grade 2: moderate, percent of patients (100 mg): (56.7) percent
- Grade 3 or higher: severe, number of patients (100 mg): 47
- Grade 3 or higher: severe, percent of patients (100 mg): (14.6) percent
- Major adverse cardiovascular event, number of patients (100 mg): 1
- Major adverse cardiovascular event, percent of patients (100 mg): (0.3) percent
- Nausea, number of patients (100 mg): 61
- Nausea, percent of patients (100 mg): (18.9) percent
- Other cardiovascular event, number of patients (100 mg): 1
- Other cardiovascular event, percent of patients (100 mg): (0.3) percent
- Pruritus, number of patients (100 mg): 37
- Pruritus, percent of patients (100 mg): (11.5) percent
- Urinary tract infection, number of patients (100 mg): 27
- Urinary tract infection, percent of patients (100 mg): (8.4) percent
- ≥1 Adverse event attributed to resmetirom, number of patients (100 mg): 134
- ≥1 Adverse event attributed to resmetirom, percent of patients (100 mg): (41.5) percent
- ≥1 Adverse event, number of patients (100 mg): 296
- ≥1 Adverse event, percent of patients (100 mg): (91.6) percent
- ≥1 Serious adverse event attributed to resmetirom, number of patients (100 mg): 0
- ≥1 Serious adverse event, number of patients (100 mg): 41
- Malignancy: Basal cell carcinoma (100 mg (N = 323)): 3 (0.9) n (%)
- Malignancy: Breast carcinoma (100 mg (N = 323)): 2 (0.6) n (%)
- Malignancy: Malignant melanoma (100 mg (N = 323)): 1 (0.3) n (%)
- Malignancy: Skin cancer (squamous cell) (100 mg (N = 323)): 1 (0.3) n (%)
- Patients with any malignancy (100 mg (N = 323)): 11 (3.4) n (%)
- Patients with at least one TE-SAEs (100 mg (N = 323)): 41 (12.7) n (%)
- SAE: Acute Gallstone-related disorders (100 mg (N = 323)): 3 (0.9) n (%)
- SAE: COVID-19 (100 mg (N = 323)): 1 (0.3) n (%)
- SAE: COVID-19 pneumonia (100 mg (N = 323)): 0 n (%)
- SAE: Cardiac disorders (100 mg (N = 323)): 3 (0.9) n (%)
- SAE: Gastrointestinal disorders (100 mg (N = 323)): 7 (2.2) n (%)
- SAE: General disorders and administration site conditions (100 mg (N = 323)): 5 (1.5) n (%)
- SAE: Infections and infestations (100 mg (N = 323)): 5 (1.5) n (%)
- SAE: Injury, poisoning and procedural complications (100 mg (N = 323)): 8 (2.5) n (%)
- SAE: Musculoskeletal and connective tissue disorders (100 mg (N = 323)): 1 (0.3) n (%)
- SAE: Nervous system disorders (100 mg (N = 323)): 2 (0.6) n (%)
- SAE: Post procedural haemorrhage (100 mg (N = 323)): 1 (0.3) n (%)
- SAE: Respiratory, thoracic and mediastinal disorders (100 mg (N = 323)): 4 (1.2) n (%)
- Adverse event: Abdominal distension (100 mg (n = 323)): 13 (4.0) no. (%)
- Adverse event: Abdominal pain (100 mg (n = 323)): 29 (9.0) no. (%)
- Adverse event: Abdominal pain upper (100 mg (n = 323)): 27 (8.4) no. (%)
- Adverse event: Constipation (100 mg (n = 323)): 28 (8.7) no. (%)
- Adverse event: Cough (100 mg (n = 323)): 18 (5.6) no. (%)
- Adverse event: Decreased appetite (100 mg (n = 323)): 16 (5.0) no. (%)
- Adverse event: Dizziness (100 mg (n = 323)): 19 (5.9) no. (%)
- Adverse event: Gastrooesophageal reflux disease (100 mg (n = 323)): 7 (2.2) no. (%)
- Adverse event: Headache (100 mg (n = 323)): 25 (7.7) no. (%)
- Adverse event: Hypertension (100 mg (n = 323)): 13 (4.0) no. (%)
- Adverse event: Muscle spasms (100 mg (n = 323)): 22 (6.8) no. (%)
- Adverse event: Nasopharyngitis (100 mg (n = 323)): 20 (6.2) no. (%)
- Adverse event: Pain in extremity (100 mg (n = 323)): 12 (3.7) no. (%)
- Adverse event: Procedural pain (100 mg (n = 323)): 9 (2.8) no. (%)
- Adverse event: Rash (100 mg (n = 323)): 21 (6.5) no. (%)
- Adverse event: Sinusitis (100 mg (n = 323)): 13 (4.0) no. (%)
- Adverse event: Type 2 diabetes (100 mg (n = 323)): 26 (8.0) no. (%)
- Adverse event: Upper respiratory tract infection (100 mg (n = 323)): 8 (2.5) no. (%)
- Adverse event: Vomiting (100 mg (n = 323)): 35 (10.8) no. (%)
- drug-induced liver injury (in vivo): no incidence of drug-induced liver injury
- severe diarrhea (in vivo): no episodes of severe diarrhea
- median duration of diarrhea (independent of dose): 15 to 20 days
